{"source": "patent US20230014918A1", "about": "“COMPOSITIONS FOR USE AS ANTIOXIDANT” (priority 2019, published 2023)", "key": {"[1]": {"tested_on": "mice mesenteric arteries", "experiment": "Vascular reactivity of phenylephrine-precontracted mice mesenteric arteries", "type": "cell-based", "settings": "for direct dose-dependent vasorelaxation compared with Healthberry 865 / vasorelaxation reached: single anthocyanins; for direct dose-dependent vasorelaxation compared with Healthberry 865: 1-100 μg/mL; for vasorelaxation reached: dose-response curves 1-100 μg/mL", "protocol": "Aorta, carotid, femoral arteries and second-order branches of the mesenteric arterial tree were removed from mice to perform vascular studies. […] First, an analysis of vascular reactivity curves was performed. In particular, vasoconstriction was assessed with 80 mmol/L of KCI or with increasing doses of phenylephrine (from 10^-9 M to 10^-6 M) in control conditions. […] Caution was taken to avoid endothelial damage; functional integrity was reflected by the response to acetylcholine (from 10^-9 M to 10^-6 M)."}, "[2]": {"tested_on": "mice mesenteric arteries", "experiment": "Total ROS production by dihydroethidium (DHE) in Angiotensin II-stimulated mice mesenteric arteries", "type": "cell-based", "settings": "pre-treatment 50 μg/mL for 1 hour, then Angiotensin II for 15 minutes", "method": "(§1) Dihydroethidium (DHE, Life Technologies) was used to evaluate production of reactive oxygen species (ROS) in mouse mesenteric arteries, as previously described. Briefly, vessels were incubated with 5 μM of DHE for 20 min and subsequently observed under a fluorescence microscope (Zeiss). Images were acquired by a digital camera system (Olympus Soft Imaging Solutions). […] After treatment, vessels were incubated with Krebs solution containing 5 μM DHR123 for 30 min at 37° C., and then washed two times with PBS prior to fluorescence measurement using a fluorescence microplate reader (TECAN infinite 200 Pro)."}, "[3]": {"tested_on": "mice mesenteric arteries", "experiment": "Total ROS production by Dihydrorhodamine 123 (DHR123) in mouse vessels", "type": "cell-based", "settings": "vessels stimulated with Angiotensin II", "method": "as §1"}, "[4]": {"tested_on": "NADPH oxidase", "experiment": "NADPH oxidase activity, lucigenin-enhanced chemiluminescence assay in mesenteric arteries", "type": "cell-based, mice", "settings": "after stimulation with Angiotensin II", "protocol": "Vessels were homogenized in a buffer containing protease inhibitors (mmol/L: 20 monobasic potassium phosphate, 1 EGTA, 0.01 aprotinin, 0.01 leupeptin, 0.01 pepstatin, 0.5 phenylmethylsulfonyl fluoride, pH 7.0). Protein content was measured in an aliquot of the homogenate by Bradford method. In some experiments, cells and vessels were pre-incubated with pharmacological inhibitors before measurements. The reaction was started by the addition of NADPH (0.1 mmol/l) and lucigenin (5 μmol/l) to each well. The chemiluminescence was measured using Tecan Infinite Pro M200 multimode microplate at 37° C.\nVessels were pre-treated with single anthocyanins (50 μg/mL) for 1 hours and then stimulated with Angiotensin II for 15 minutes prior to the acquisition. […] Data are expressed as increase of chemiluminescence per minute."}, "[5]": {"tested_on": "mice mesenteric arteries", "experiment": "Evaluation of NO production by DAF-FM in mice mesenteric arteries", "type": "cell-based", "settings": "single anthocyanins 50 μg/mL", "protocol": "Production of NO was assessed as previously described (Carrizzo et al. 2016). […] Mesenteric segments were cut in 5-μm thick sections, observed under a fluorescence microscope, subsequently counterstained with haematoxylin and eosin and observed under a light microscope.\nScale bar, 50 μm. E) Semiquantitative analyses of immunoblots of mice mesenteric arteries treated with HB (100 μg/mL) alone, or HB plus Akt inhibitor or LY294002, columns are the mean±SEM of three independent experiments. Statistical analyses were performed using two-way ANOVA followed Bonferroni post-hoc test. *p<0.05; **p<0.01, ***p<0.001."}}, "note": "“Also recorded” adds a separate entry of the source."}
{"compound": "Oc1cc(O)c2cc(O[C@H]3OC[C@H](O)[C@H](O)[C@H]3O)c(-c3cc(O)c(O)c(O)c3)[o+]c2c1", "note": "[DP3-ara, Delphinidin-3-arabinoside]", "values": [{"measurement": "direct dose-dependent vasorelaxation compared with Healthberry 865", "setting": "[1]", "result": "none of the single anthocyanins was able to evoke a dose-dependent vasorelaxation comparable; also recorded: vasorelaxant effects evoked by DP3-gal, C3-rut and DP3-ara were observed"}]}
{"compound": "C[C@@H]1O[C@@H](OC[C@H]2O[C@@H](Oc3cc4c(O)cc(O)cc4[o+]c3-c3ccc(O)c(O)c3)[C@H](O)[C@@H](O)[C@@H]2O)[C@H](O)[C@H](O)[C@H]1O", "note": "[C3-rut, Cyanidin-3-rutinoside]", "values": [{"measurement": "direct dose-dependent vasorelaxation compared with Healthberry 865", "setting": "[1]", "result": "none of the single anthocyanins was able to evoke a dose-dependent vasorelaxation comparable; also recorded: vasorelaxant effects evoked by DP3-gal, C3-rut and DP3-ara were observed"}, {"measurement": "vasorelaxation reached", "setting": "[1]", "result": "~36,5%"}, {"measurement": "Angiotensin II-induced ROS formation (DHE)", "setting": "[2]", "result": "able to reproduce the antioxidant action of Healthberry 865®"}, {"measurement": "total ROS production (DHR123)", "setting": "[3]", "result": "a similar effect was reproduced"}, {"measurement": "NADPH oxidase (NOX) activity", "setting": "[4]", "result": "able to reduce NOX activity"}]}
{"compound": "OC[C@H]1O[C@@H](Oc2cc3c(O)cc(O)cc3[o+]c2-c2cc(O)c(O)c(O)c2)[C@H](O)[C@@H](O)[C@@H]1O", "note": "[DP3-glu, Delphinidin-3-glucoside]", "values": [{"measurement": "direct dose-dependent vasorelaxation compared with Healthberry 865", "setting": "[1]", "result": "none of the single anthocyanins was able to evoke a dose-dependent vasorelaxation comparable"}, {"measurement": "Angiotensin II-induced ROS formation (DHE)", "setting": "[2]", "result": "able to reproduce the antioxidant action of Healthberry 865®"}, {"measurement": "total ROS production (DHR123)", "setting": "[3]", "result": "a similar effect was reproduced"}, {"measurement": "NADPH oxidase (NOX) activity", "setting": "[4]", "result": "able to reduce NOX activity"}]}
{"compound": "COc1cc(-c2[o+]c3cc(O)cc(O)c3cc2O[C@@H]2O[C@H](CO)[C@H](O)[C@H](O)[C@H]2O)cc(OC)c1O", "note": "[MAL3-gal, Malvidin-3-galactoside]", "values": [{"measurement": "direct dose-dependent vasorelaxation compared with Healthberry 865", "setting": "[1]", "result": "none of the single anthocyanins was able to evoke a dose-dependent vasorelaxation comparable"}, {"measurement": "Angiotensin II-induced ROS formation (DHE)", "setting": "[2]", "result": "able to reproduce the antioxidant action of Healthberry 865®"}, {"measurement": "total ROS production (DHR123)", "setting": "[3]", "result": "a similar effect was reproduced"}, {"measurement": "NADPH oxidase (NOX) activity", "setting": "[4]", "result": "able to reduce NOX activity"}]}
{"compound": "Peonidin-3-galactoside [PEO3-gal]", "values": [{"measurement": "direct dose-dependent vasorelaxation compared with Healthberry 865", "setting": "[1]", "result": "none of the single anthocyanins was able to evoke a dose-dependent vasorelaxation comparable"}, {"measurement": "Angiotensin II-induced ROS formation (DHE)", "setting": "[2]", "result": "able to reproduce the antioxidant action of Healthberry 865®"}, {"measurement": "total ROS production (DHR123)", "setting": "[3]", "result": "a similar effect was reproduced"}, {"measurement": "NADPH oxidase (NOX) activity", "setting": "[4]", "result": "able to reduce NOX activity"}]}
{"compound": "COc1cc(-c2[o+]c3cc(O)cc(O)c3cc2O[C@@H]2O[C@H](CO)[C@@H](O)[C@H](O)[C@H]2O)cc(O)c1O", "note": "[PT3-glu, Petunidin-3-glucoside]", "values": [{"measurement": "direct dose-dependent vasorelaxation compared with Healthberry 865", "setting": "[1]", "result": "none of the single anthocyanins was able to evoke a dose-dependent vasorelaxation comparable"}]}
{"compound": "COc1cc(-c2[o+]c3cc(O)cc(O)c3cc2O[C@@H]2O[C@H](CO)[C@@H](O)[C@H](O)[C@H]2O)cc(OC)c1O", "note": "[MAL3-glu, Malvidin-3-glucoside]", "values": [{"measurement": "direct dose-dependent vasorelaxation compared with Healthberry 865", "setting": "[1]", "result": "none of the single anthocyanins was able to evoke a dose-dependent vasorelaxation comparable"}, {"measurement": "Angiotensin II-induced ROS formation (DHE)", "setting": "[2]", "result": "able to reproduce the antioxidant action of Healthberry 865®"}, {"measurement": "total ROS production (DHR123)", "setting": "[3]", "result": "a similar effect was reproduced"}, {"measurement": "NADPH oxidase (NOX) activity", "setting": "[4]", "result": "able to reduce NOX activity; also recorded: most powerful anthocyanins closer to the potent effect of Healthberry 865®"}]}
{"compound": "OC[C@H]1O[C@@H](Oc2cc3c(O)cc(O)cc3[o+]c2-c2cc(O)c(O)c(O)c2)[C@H](O)[C@@H](O)[C@H]1O", "note": "[DP3-gal, Delphinidin-3-galactoside]", "values": [{"measurement": "direct dose-dependent vasorelaxation compared with Healthberry 865", "setting": "[1]", "result": "none of the single anthocyanins was able to evoke a dose-dependent vasorelaxation comparable; also recorded: vasorelaxant effects evoked by DP3-gal, C3-rut and DP3-ara were observed"}, {"measurement": "vasorelaxation reached", "setting": "[1]", "result": "about 32,5%"}]}
{"compound": "OC[C@H]1O[C@@H](Oc2cc3c(O)cc(O)cc3[o+]c2-c2ccc(O)c(O)c2)[C@H](O)[C@@H](O)[C@@H]1O", "note": "[C3-glu, Cyanidin-3-glucoside]", "values": [{"measurement": "direct dose-dependent vasorelaxation compared with Healthberry 865", "setting": "[1]", "result": "none of the single anthocyanins was able to evoke a dose-dependent vasorelaxation comparable"}, {"measurement": "Angiotensin II-induced ROS formation (DHE)", "setting": "[2]", "result": "able to reproduce the antioxidant action of Healthberry 865®"}, {"measurement": "total ROS production (DHR123)", "setting": "[3]", "result": "a similar effect was reproduced"}, {"measurement": "NADPH oxidase (NOX) activity", "setting": "[4]", "result": "able to reduce NOX activity; also recorded: most powerful anthocyanins closer to the potent effect of Healthberry 865®"}]}
{"compound": "OC[C@H]1O[C@@H](Oc2cc3c(O)cc(O)cc3[o+]c2-c2ccc(O)c(O)c2)[C@H](O)[C@@H](O)[C@H]1O", "note": "[C3-gal, Cyanidin-3-galactoside]", "values": [{"measurement": "vasorelaxant effect in presence of Akt inhibitor", "setting": "[1]; increasing doses, Akt inhibitor", "result": "did not inhibit C3-gal vascular action"}, {"measurement": "vasorelaxant effect in presence of PI3K inhibitor LY294002", "setting": "[1]; increasing doses, pre-treatment with LY294002", "result": "did not inhibit C3-gal vascular action"}, {"measurement": "vasorelaxant effect in presence of L-NAME", "setting": "[1]; increasing doses, pre-treatment with eNOS inhibitor L-NAME", "result": "significantly reduced its vasorelaxant properties"}, {"measurement": "vasorelaxant effect in presence of Dorsomorphin", "setting": "[1]; increasing doses, selective AMPK inhibitor Dorsomorphin", "result": "completely lost its vasorelaxant capability"}, {"measurement": "direct dose-dependent vasorelaxation compared with Healthberry 865", "setting": "[1]", "result": "very similar to that induced by Healthberry 865®"}, {"measurement": "nitric oxide production (DAF-FM fluorescence)", "setting": "[5]", "result": "significant increase of nitric oxide production"}]}
